Results taken from patent US12064426B2, “Selective inhibitors of ROCK1 and ROCK2 protein kinases and uses thereof” (GENOSCO Inc., priority 2021, dated 2024).

Key:
[1] = molecular target: T1, Recombinant ROCK1 (amino acids 1-477) (Homo sapiens, UniProt Q13464); assay: ROCK inhibition assay, LANCE Ultra TR-FRET kinase assay (ROCK1); type: biochemical; conditions: 1 μM ATP, 50 nM ULight-CREBtide substrate
T1 construct: Recombinant ROCK1 (amino acids 1-477); by word order, ROCK1 from Carna Biosciences
T1 sequence (Q13464 1-477): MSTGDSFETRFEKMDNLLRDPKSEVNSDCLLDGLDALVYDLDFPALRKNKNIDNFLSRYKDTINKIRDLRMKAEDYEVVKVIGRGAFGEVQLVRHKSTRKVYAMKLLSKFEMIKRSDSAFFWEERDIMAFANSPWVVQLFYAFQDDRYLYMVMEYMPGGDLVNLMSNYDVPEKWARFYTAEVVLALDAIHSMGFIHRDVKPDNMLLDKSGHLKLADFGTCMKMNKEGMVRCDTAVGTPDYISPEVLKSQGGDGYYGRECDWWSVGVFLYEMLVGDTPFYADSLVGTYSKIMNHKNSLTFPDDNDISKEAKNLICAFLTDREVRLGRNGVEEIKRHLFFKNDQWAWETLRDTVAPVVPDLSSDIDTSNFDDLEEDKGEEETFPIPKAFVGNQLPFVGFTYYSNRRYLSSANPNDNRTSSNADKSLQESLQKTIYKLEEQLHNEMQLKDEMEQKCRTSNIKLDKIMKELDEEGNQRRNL
Procedure, shortened: (§1)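 LANCE Ultra TR-FRET kinase assay with recombinant ROCK1 (aa 1-477) or ROCK2 (aa 5-554), 50 nM ULight-CREBtide and ATP at 1 μM (ROCK1) or 4 μM (ROCK2) in HEPES pH 7.5 with MgCl2, 1 h at room temperature. EDTA stop with Eu anti-phospho-CREB Ser133 antibody; 665/615 nm read gives IC50.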

[2] = molecular target: T2, Recombinant ROCK2 (amino acids 5-554) (Homo sapiens, UniProt O75116); assay: ROCK inhibition assay, LANCE Ultra TR-FRET kinase assay (ROCK2); type: biochemical; conditions: 4 μM ATP, 50 nM ULight-CREBtide substrate
T2 construct: ROCK2 (amino acids 5-554); by word order, ROCK2 from SignalChem
T2 sequence (O75116 5-554): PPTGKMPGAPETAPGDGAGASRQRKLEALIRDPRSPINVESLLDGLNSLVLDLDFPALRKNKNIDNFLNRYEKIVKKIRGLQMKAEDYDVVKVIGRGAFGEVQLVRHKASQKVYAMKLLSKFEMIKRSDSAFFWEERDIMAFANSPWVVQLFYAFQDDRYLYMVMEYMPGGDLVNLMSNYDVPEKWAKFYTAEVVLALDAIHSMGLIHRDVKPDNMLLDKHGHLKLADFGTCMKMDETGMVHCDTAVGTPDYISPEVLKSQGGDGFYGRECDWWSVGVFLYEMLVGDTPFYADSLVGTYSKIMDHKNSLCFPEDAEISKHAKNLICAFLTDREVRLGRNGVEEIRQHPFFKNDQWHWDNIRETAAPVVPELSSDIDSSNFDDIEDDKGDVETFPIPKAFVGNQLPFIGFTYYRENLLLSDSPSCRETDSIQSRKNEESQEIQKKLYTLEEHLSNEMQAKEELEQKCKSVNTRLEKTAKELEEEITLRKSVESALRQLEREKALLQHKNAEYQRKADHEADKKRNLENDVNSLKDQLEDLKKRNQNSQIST
Procedure, shortened: as §1

Row | SMILES | IC50 [1] [nM] | IC50 [2] [nM]
1 | O=C(Nc1cccc(Cn2ccc3cc(-c4c[nH]nc4Cl)ccc3c2=O)c1)C1COC1 [Compound 346] | 101 to 500 | 10 to 100
2 | CC(=O)Nc1cccc(Cn2ccc3cc(-c4conc4C)ccc3c2=O)c1 [Compound 347] | 101 to 500 | 10 to 100
3 | Cc1nocc1-c1ccc2c(=O)n(Cc3cccc(NC(=O)C4COC4)c3)ccc2c1 [Compound 348] | 11 to 100 | 10 to 100
4 | Cc1nocc1-c1ccc2c(=O)n(Cc3cccc(NC(=O)c4ccc(F)cc4)c3)ccc2c1 [Compound 349] | 11 to 100 | 10 to 100
5 | Cc1nocc1-c1ccc2c(=O)n(Cc3cc(F)cc(NC(=O)c4ccccn4)c3)ccc2c1 [Compound 350] | 101 to 500 | 10 to 100
6 | CC(=O)Nc1cc(F)cc(Cn2ccc3cc(-c4conc4C)ccc3c2=O)c1 [Compound 351] | 101 to 500 | 10 to 100
7 | CC(=O)Nc1cccc(Cn2ccc3cc(-c4cn[nH]c4)ccc3c2=O)c1 [Compound 352] | 101 to 500 | 10 to 100
8 | CC(=O)Nc1cc(F)cc(Cn2ccc3cc(-c4ccnc(N)c4)ccc3c2=O)c1 [Compound 353] | > 501 | 100 to 500
9 | COc1cccc(Cn2cnc3cc(-c4cn[nH]c4)ccc3c2=O)c1 [Compound 354, 3-(3-methoxybenzyl)-7-(1H-pyrazol-4-yl)quinazolin-4(3H)-one] | 11 to 100 | 10 to 100
10 | COc1cccc(Cn2cnc3cc(-c4c[nH]nc4C)ccc3c2=O)c1 [Compound 355] | 11 to 100 | 10 to 100
11 | COc1cccc(Cn2cnc3cc(-c4conc4C)ccc3c2=O)c1 [Compound 357] | 11 to 100 | 10 to 100
12 | COc1cccc(Cn2cnc3cc(-c4ccnn4C)ccc3c2=O)c1 [Compound 358] | 11 to 100 | 10 to 100
13 | COc1cccc(Cn2cnc3cc(-c4c[nH]nc4C(F)F)ccc3c2=O)c1 [Compound 359] | 11 to 100 | < 10
14 | COc1cc(F)cc(Cn2cnc3cc(-c4c[nH]nc4C(F)F)ccc3c2=O)c1 [Compound 360] | 11 to 100 | < 10
15 | COc1cc(F)cc(Cn2cnc3cc(-c4c[nH]nc4Cl)ccc3c2=O)c1 [Compound 361] | 11 to 100 | < 10
16 | COc1cccc(Cn2cnc3cc(-c4c[nH]nc4Cl)ccc3c2=O)c1 [Compound 362] | 11 to 100 | < 10
17 | COc1cccc(Cn2cnc3cc(-c4ccncc4)ccc3c2=O)c1 [Compound 363] | 11 to 100 | 10 to 100
18 | COc1cccc(Cn2cnc3cc(-c4ccnc(N)c4)ccc3c2=O)c1 [Compound 364] | 11 to 100 | 10 to 100
19 | CNC(=O)c1cccc(Cn2cnc3cc(-c4cn[nH]c4)ccc3c2=O)c1 [Compound 366, N-methyl-3-((4-oxo-7-(1H-pyrazol-4-yl)quinazolin-3(4H)-yl)methyl)benzamide] | 11 to 100 | < 10
20 | CNC(=O)c1cccc(Cn2cnc3cc(-c4cn[nH]c4C(F)(F)F)ccc3c2=O)c1 [Compound 367] | 11 to 100 | < 10

Row | SMILES | IC50 [1] [nM] | IC50 [2] [nM]
21 | [2H]C([2H])([2H])NC(=O)c1cccc(Cn2cnc3cc(-c4cn[nH]c4C(F)(F)F)ccc3c2=O)c1 [Compound 368] | 11 to 100 | < 10
22 | CC(C)NC(=O)c1cccc(Cn2cnc3cc(-c4cn[nH]c4C(F)(F)F)ccc3c2=O)c1 [Compound 369] | 11 to 100 | < 10
23 | O=C(NCCc1ccncc1)c1cccc(Cn2cnc3cc(-c4cn[nH]c4C(F)(F)F)ccc3c2=O)c1 [Compound 370] | < 10 | < 10
24 | O=C(NCc1ccccc1)c1cccc(Cn2cnc3cc(-c4cn[nH]c4C(F)(F)F)ccc3c2=O)c1 [Compound 371] | 101 to 500 | 10 to 100
25 | O=C(NCc1ccncc1)c1cccc(Cn2cnc3cc(-c4cn[nH]c4C(F)(F)F)ccc3c2=O)c1 [Compound 372] | < 10 | < 10
26 | CS(=O)(=O)Nc1ccc(CNC(=O)c2cccc(Cn3cnc4cc(-c5cn[nH]c5C(F)(F)F)ccc4c3=O)c2)cc1 [Compound 373] | 11 to 100 | < 10
27 | Cn1ccc(NC(=O)c2cccc(Cn3cnc4cc(-c5cn[nH]c5C(F)(F)F)ccc4c3=O)c2)n1 [Compound 374] | 11 to 100 | < 10
28 | O=C(Nc1ccon1)c1cccc(Cn2cnc3cc(-c4cn[nH]c4C(F)(F)F)ccc3c2=O)c1 [Compound 375] | 101 to 500 | 10 to 100
29 | O=C(NC1CCOCC1)c1cccc(Cn2cnc3cc(-c4cn[nH]c4C(F)(F)F)ccc3c2=O)c1 [Compound 376] | 11 to 100 | < 10
30 | O=C(NC1CCN(C2COC2)CC1)c1cccc(Cn2cnc3cc(-c4cn[nH]c4C(F)(F)F)ccc3c2=O)c1 [Compound 377] | 11 to 100 | < 10
31 | CN1CCC(NC(=O)c2cccc(Cn3cnc4cc(-c5cn[nH]c5C(F)(F)F)ccc4c3=O)c2)CC1 [Compound 378] | < 10 | < 10
32 | O=C(NCC1CCOCC1)c1cccc(Cn2cnc3cc(-c4cn[nH]c4C(F)(F)F)ccc3c2=O)c1 [Compound 379] | 11 to 100 | < 10
33 | O=C(NCC1COC1)c1cccc(Cn2cnc3cc(-c4cn[nH]c4C(F)(F)F)ccc3c2=O)c1 [Compound 380] | 11 to 100 | < 10
34 | O=C(NCC1CCNCC1)c1cccc(Cn2cnc3cc(-c4cn[nH]c4C(F)(F)F)ccc3c2=O)c1 [Compound 381] | < 10 | < 10
35 | O=C(N[C@H]1CC[C@@H](O)CC1)c1cccc(Cn2cnc3cc(-c4cn[nH]c4C(F)(F)F)ccc3c2=O)c1 [Compound 382] | 11 to 100 | < 10
36 | O=C(N[C@H]1CC[C@H](O)CC1)c1cccc(Cn2cnc3cc(-c4cn[nH]c4C(F)(F)F)ccc3c2=O)c1 [Compound 383] | 11 to 100 | < 10
37 | O=C(NCCO)c1cccc(Cn2cnc3cc(-c4cn[nH]c4C(F)(F)F)ccc3c2=O)c1 [Compound 384] | 11 to 100 | 10 to 100
38 | CS(=O)(=O)Nc1ccc(NC(=O)c2cccc(Cn3cnc4cc(-c5cn[nH]c5C(F)(F)F)ccc4c3=O)c2)cc1 [Compound 385] | 101 to 500 | 10 to 100
39 | CNC(=O)c1cc(F)cc(Cn2cnc3cc(-c4cn[nH]c4C(F)(F)F)ccc3c2=O)c1 [Compound 386] | 11 to 100 | < 10
40 | [2H]C([2H])([2H])NC(=O)c1cc(F)cc(Cn2cnc3cc(-c4cn[nH]c4C(F)(F)F)ccc3c2=O)c1 [Compound 387] | 11 to 100 | < 10

Row | SMILES | IC50 [1] [nM] | IC50 [2] [nM]
41 | CNC(=O)c1cc(F)cc(C(C)n2cnc3cc(-c4cn[nH]c4C(F)(F)F)ccc3c2=O)c1 (stereo not shown) [Compound 388] | 11 to 100 | < 10
42 | CNC(=O)c1cc(Cn2cnc3cc(-c4cn[nH]c4C(F)(F)F)ccc3c2=O)ccc1F [Compound 389] | 11 to 100 | 10 to 100
43 | CNC(=O)c1cccc(Cn2cnc3cc(-c4cn[nH]c4C(F)F)ccc3c2=O)c1 [Compound 391] | 11 to 100 | < 10
44 | [2H]C([2H])([2H])NC(=O)c1cccc(Cn2cnc3cc(-c4cn[nH]c4C(F)F)ccc3c2=O)c1 [Compound 392] | 11 to 100 | < 10
45 | O=C(NCCO)c1cccc(Cn2cnc3cc(-c4cn[nH]c4C(F)F)ccc3c2=O)c1 [Compound 393] | 11 to 100 | < 10
46 | CN(C)CCNC(=O)c1cccc(Cn2cnc3cc(-c4cn[nH]c4C(F)F)ccc3c2=O)c1 [Compound 394] | 11 to 100 | 10 to 100
47 | CN1CCC(CNC(=O)c2cccc(Cn3cnc4cc(-c5cn[nH]c5C(F)F)ccc4c3=O)c2)CC1 [Compound 395] | < 10 | < 10
48 | O=C(NCC1CCOCC1)c1cccc(Cn2cnc3cc(-c4cn[nH]c4C(F)F)ccc3c2=O)c1 [Compound 396] | 11 to 100 | < 10
49 | O=C(NCc1ccnc(F)c1)c1cccc(Cn2cnc3cc(-c4cn[nH]c4C(F)F)ccc3c2=O)c1 [Compound 397] | 11 to 100 | < 10
50 | CS(=O)(=O)c1cccc(CNC(=O)c2cccc(Cn3cnc4cc(-c5cn[nH]c5C(F)F)ccc4c3=O)c2)c1 [Compound 398] | 101 to 500 | 10 to 100
51 | CS(=O)(=O)Nc1cccc(CNC(=O)c2cccc(Cn3cnc4cc(-c5cn[nH]c5C(F)F)ccc4c3=O)c2)c1 [Compound 399] | 101 to 500 | 10 to 100
52 | CN(C)c1cccc(CNC(=O)c2cccc(Cn3cnc4cc(-c5cn[nH]c5C(F)F)ccc4c3=O)c2)c1 [Compound 400] | 101 to 500 | 10 to 100
53 | CNC(=O)c1cc(F)cc(Cn2cnc3cc(-c4cn[nH]c4C(F)F)ccc3c2=O)c1 [Compound 401] | 11 to 100 | < 10
54 | [2H]C([2H])([2H])NC(=O)c1cc(F)cc(Cn2cnc3cc(-c4cn[nH]c4C(F)F)ccc3c2=O)c1 [Compound 402] | 11 to 100 | < 10
55 | CNC(=O)c1cncc(Cn2cnc3cc(-c4cn[nH]c4Cl)ccc3c2=O)c1 [Compound 403] | > 501 | 100 to 500
56 | CNC(=O)c1cccc(Cn2cnc3cc(-c4cn[nH]c4Cl)ccc3c2=O)c1 [Compound 404] | < 10 | < 10
57 | [2H]C([2H])([2H])NC(=O)c1cccc(Cn2cnc3cc(-c4cn[nH]c4Cl)ccc3c2=O)c1 [Compound 405] | < 10 | < 10
58 | CNC(=O)c1cccc(C(C)n2cnc3cc(-c4cn[nH]c4Cl)ccc3c2=O)c1 (stereo not shown) [Compound 406] | 11 to 100 | < 10
59 | O=C(N[C@H]1CC[C@@H](O)CC1)c1cccc(Cn2cnc3cc(-c4cn[nH]c4Cl)ccc3c2=O)c1 [Compound 407] | 11 to 100 | < 10
